For 28 compounds, TGI and GI50 results are on record in PubChem BioAssay (NCI).

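Grown in 96-well plates, cells were treated for 48 hours with each compound at five concentrations. Insufficient inhibition: endpoint recorded as highest concentration tested. Abbreviation: GI50, concentration required for 50% inhibition of growth. At the TGI there is no net growth.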

The first experiment concerns SF-268 CNS. The experiment can be described thus: inhibition of tumour cell growth, NCI panel, 48 h.
With `Clc1ccc(C(c2ccc(Cl)cc2)c2ccccn2)cc1`, the TGI was found to be 69.7 µM.
The same measure, in the same setting: with `CC(C)=Cc1cc(C(=O)Nc2ccc(Cl)c(Cl)c2)nc(N)n1` the figure was over 100 µM; with `Cn1cnc([N+](=O)[O-])c1Sc1nc2ccccc2[nH]1`, 38.5 µM.
For the compound `COc1ccc([C@H]2[C@@H](F)C(=O)N2c2cc(OC)c(OC)c(OC)c2)cc1F`, the GI50 was 0.324 µM and the TGI is over 100 µM.
In turn, `CCCCCCN(CCCCCC)C(=O)Cc1c2n(c3ccccc13)Cc1ccccc1-2` yielded a TGI of over 100 µM.
The same measure, in the same setting: with `CCCCCCCCC/C=C1\CCC(CN2CCOCC2)C1=O` (stereo not given) the figure was 18.2 µM; with `O=c1[nH]c(Nc2nc3ccccc3[nH]2)nc(O)c1-c1ccccc1`, over 100 µM; with `CC(=O)OC1COC(n2ccc3cc(Br)c([N+](=O)[O-])cc32)C(OC(C)=O)C1OC(C)=O` (stereo not given), over 100 µM.
For `CC(=O)[C@@]12O[C@@H]1CC1C3CCC4=CC(O)CCC4(C)C3CCC12C` (stereo not given in full), the GI50 is 83.5 µM and the TGI was over 100 µM.
In turn, `CCOC(=O)NC(=O)c1cn(CCCO)c(=O)[nH]c1=O` registered a TGI of over 100 µM.
On to `CN(C)c1nc(=Nc2ccc(N=c3nc(N(C)C)ss3)cc2)ss1`, for which the TGI came to 99.2 µM.
On the same count and under the same terms, next, `CCc1cc(Cc2cc(CC)c(NC(=O)C(=O)Cc3ccccn3)c(CC)c2Cl)c(Cl)c(CC)c1NC(=O)C(=O)Cc1ccccn1`: over 100 µM.
On to `O=C1c2cc3c(cc2-c2c1c1ccc(F)cc1c(=O)n2CCCNCCO)OCO3`, for which the GI50 is 0.0537 µM and the TGI is 1.16 µM.
As for `C[Si](C)(C)C1(Sc2ccccc2)SCCCS1`, the TGI is over 100 µM.
Take `Cc1cc(-c2ccc3nc(C4CCOCC4)n(CCOC(F)(F)F)c3c2)cn(C)c1=O`: the GI50 is 1.65 µM and the TGI came out at 80.2 µM.
The compound `c1ccc(COc2cccc3ccc[n+](Cc4ccccc4)c23)cc1` gave a TGI of over 100 µM.
Still for that read-out and setting: with `O=S1(=O)OCCOS(=O)(=O)C1Br` the figure was over 100 µM; with `CCOC(=O)C(=C=C=C(c1ccccc1)c1ccccc1)C(=O)OCC`, 63.5 µM; with `CC1=CC(O)(c2ccc(-c3ccccc3Cl)cc2)OC1=O` (stereo not given), over 100 µM.
The same measure, in the same setting: with `C/C(=N\NC(=S)NC(CCC(=O)O)C(=O)O)c1ccccn1` (stereo not given) the figure was over 100 µM; with `C#CC1(O)CCC2C3CCc4cc(Oc5nc(F)nc(-c6c7ccccc7c7sc8ccccc8n67)n5)ccc4C3CC[C@@]21C` (stereo not given in full), over 100 µM.
`COc1ccc(S(=O)(=O)NNS(C)(=O)=O)cc1` yielded a TGI of over 100 µM.
For `O=C(/C=C\c1ccc(Cl)c(Cl)c1)c1ccc(Cl)cc1Cl`, the TGI amounted to 55.1 µM.
With `CCN1c2ccccc2C(C(SC)S(=O)(=O)c2ccc(C)cc2)c2c1[nH]c(=O)n(C)c2=O` (stereo not given), the TGI was over 100 µM.
`COC(OC)C(C)CC(=O)N(C)C` (stereo not given): the TGI was over 100 µM.

The subject of the next experiment is SK-MEL-5 melanoma. The experiment can be described thus: inhibition of tumour cell growth, NCI panel, 48 h.
Regarding `O=c1cc(-c2ccccc2)oc2cc(OCCCOc3ccc4c(=O)cc(-c5ccccc5)oc4c3)ccc12`, the TGI is over 100 µM.
In turn, `Clc1ccc(C(c2ccc(Cl)cc2)c2ccccn2)cc1` yielded a TGI of 33 µM.
For the compound `CC(C)=Cc1cc(C(=O)Nc2ccc(Cl)c(Cl)c2)nc(N)n1`, the TGI is over 100 µM.
`Cn1cnc([N+](=O)[O-])c1Sc1nc2ccccc2[nH]1`: the TGI was found to be 26.2 µM.
For the compound `COc1ccc([C@H]2[C@@H](F)C(=O)N2c2cc(OC)c(OC)c(OC)c2)cc1F`, the GI50 was 0.0456 µM and the TGI is 0.35 µM.
Consider `CCCCCCN(CCCCCC)C(=O)Cc1c2n(c3ccccc13)Cc1ccccc1-2`, for which the TGI was over 100 µM.
Same read-out and setting: with `CCCCCCCCC/C=C1\CCC(CN2CCOCC2)C1=O` (stereo not given) the figure was 18.8 µM; with `O=c1[nH]c(Nc2nc3ccccc3[nH]2)nc(O)c1-c1ccccc1`, over 100 µM.
For `CC(=O)[C@@]12O[C@@H]1CC1C3CCC4=CC(O)CCC4(C)C3CCC12C` (stereo not given in full), the GI50 is over 100 µM and the TGI is over 100 µM.
`CCOC(=O)NC(=O)c1cn(CCCO)c(=O)[nH]c1=O` displayed a TGI of over 100 µM.
Same read-out and setting: next, `CN(C)c1nc(=Nc2ccc(N=c3nc(N(C)C)ss3)cc2)ss1`: over 61.2 µM; `CCc1cc(Cc2cc(CC)c(NC(=O)C(=O)Cc3ccccn3)c(CC)c2Cl)c(Cl)c(CC)c1NC(=O)C(=O)Cc1ccccn1`: over 100 µM.
Regarding `O=C1c2cc3c(cc2-c2c1c1ccc(F)cc1c(=O)n2CCCNCCO)OCO3`, the GI50 is 0.109 µM and the TGI is 0.232 µM.
The compound `C[Si](C)(C)C1(Sc2ccccc2)SCCCS1` came in with a TGI of over 100 µM.
On the same count and under the same terms, with `Cc1cc(-c2ccc3nc(C4CCOCC4)n(CCOC(F)(F)F)c3c2)cn(C)c1=O` the figure was 1.27 µM; with `O=S1(=O)OCCOS(=O)(=O)C1Br`, over 100 µM.
Consider `CC1=CC(O)(c2ccc(-c3ccccc3Cl)cc2)OC1=O` (stereo not given), for which the TGI is over 100 µM.
Consider `OCCCCCNCc1cc2cc3c(cc2c2cc(OCc4ccccc4)ccc12)OCO3`, for which the GI50 is 1.48 µM and the TGI came to 2.8 µM.
`C/C(=N\NC(=S)NC(CCC(=O)O)C(=O)O)c1ccccn1` (stereo not given) had a TGI of over 100 µM.
On the same count and under the same terms, with `C#CC1(O)CCC2C3CCc4cc(Oc5nc(F)nc(-c6c7ccccc7c7sc8ccccc8n67)n5)ccc4C3CC[C@@]21C` (stereo not given in full) the figure was over 100 µM.
The same measure, in the same setting: with `Cc1ccc(NC(=O)c2cc3cc(N=Nc4ccccc4C(=O)O)ccc3oc2=O)cc1` the figure was over 100 µM; with `COc1ccc(S(=O)(=O)NNS(C)(=O)=O)cc1`, over 100 µM; with `O=C(/C=C\c1ccc(Cl)c(Cl)c1)c1ccc(Cl)cc1Cl`, 30.8 µM.
The same measure, in the same setting: next, `CCN1c2ccccc2C(C(SC)S(=O)(=O)c2ccc(C)cc2)c2c1[nH]c(=O)n(C)c2=O` (stereo not given): over 100 µM.
Consider `COC(OC)C(C)CC(=O)N(C)C` (stereo not given), for which the TGI was over 100 µM.

For a further experiment, the system named is HOP-62 NSCLC. The experiment can be described thus: inhibition of tumour cell growth, NCI panel, 48 h.
Regarding `O=c1cc(-c2ccccc2)oc2cc(OCCCOc3ccc4c(=O)cc(-c5ccccc5)oc4c3)ccc12`, the TGI is over 100 µM.
Still for that read-out and setting: next, `CC(C)=Cc1cc(C(=O)Nc2ccc(Cl)c(Cl)c2)nc(N)n1`: over 100 µM.
`Cn1cnc([N+](=O)[O-])c1Sc1nc2ccccc2[nH]1` returned a TGI of over 100 µM.
Consider `COc1ccc([C@H]2[C@@H](F)C(=O)N2c2cc(OC)c(OC)c(OC)c2)cc1F`, for which the GI50 is 0.511 µM and the TGI was over 100 µM.
With `CCCCCCN(CCCCCC)C(=O)Cc1c2n(c3ccccc13)Cc1ccccc1-2`, the TGI is over 100 µM.
On the same count and under the same terms, next, `CCCCCCCCC/C=C1\CCC(CN2CCOCC2)C1=O` (stereo not given): 26.4 µM.
